Converted amounts (≈) assume the structure as drawn.
Columns and labels:
M. abscessus ATCC 19977 = assay: MIC assay in 96-well plate format, wild-type strain; assay type: cell-based, Mycobacterium abscessus; details: for MIC: M. abscessus ATCC 19977, 90% growth inhibition, read-out: WT Mab MIC; for MIC ratio: WT MIC/Δarr strain MIC; for fold loss of potency compared to 5a: MIC against M. abscessus; for MICWT: Table 10
Experimental: (§1) MIC determination was carried out in 96-well plate format as previously described.^[13-14] 96-well plates were initially set up with 100 μL of 7H9 per well. For each compound, a ten-point two-fold dilution series starting at twice the desired highest concentration was dispensed onto the 96-well plates using a Tecan D300e Digital Dispenser, with the DMSO concentration normalized to 2%. M. abscessus culture grown to mid-log phase (OD600=0.4-0.6) was diluted to OD600=0.1 (1×10^7 CFU/mL). […] Untreated control wells are included on each plate that contain bacteria suspension and 1% DMSO. Plates were sealed with parafilm, stored in boxes with wet paper towels and incubated at 37° C. with shaking (110 RPM). Plates were incubated for 3 days. To determine growth, OD600 was measured using a Tecan Infinite M200 plate reader on Day 0 and Day 3. Two biological replicates were performed. Clarithromycin was included in each experiment as a positive control.
(§2) For each well on the 96-well plate, bacterial growth was calculated by subtracting the Day 0 OD600 value from the Day 3 OD600 value. […] For compound-containing wells, percentage growth was calculated by dividing their growth values by the average drug-free bacterial growth for the compound series and multiplying by 100. For each compound series, we plotted percentage growth versus compound concentration.

Δarr M. abscessus = assay: MIC assay, isogenic arr-deleted strain; assay type: cell-based, Mycobacterium abscessus; details: for Δarr Mab MIC: arr-deleted strain, 90% growth inhibition; for MICΔorr: Table 10
Experimental: as §1, §2

Structure (SMILES)	MIC (M. abscessus ATCC 19977) [nM]	MIC ratio (M. abscessus ATCC 19977)	Δarr Mab MIC (Δarr M. abscessus) [nM]	fold loss of potency compared to 5a (M. abscessus ATCC 19977) [fold]	MICWT (M. abscessus ATCC 19977) [µM]	MICΔorr (Δarr M. abscessus) [µM]
CO[C@H]1/C=C/O[C@@]2(C)Oc3c(C)c(O)c4c(c3C2=O)C2=NC3(CCN(CC(C)C)CC3)NC2=C(NC(=O)/C(C)=C/C=C/[C@H](C)[C@H](O)[C@@H](C)[C@@H](O)[C@@H](C)[C@H](OC(=O)c2ccc(C)cc2)[C@@H]1C)C4=O [5d, 25-O-(4-methylbenzoyl)-25-O-desacetyrifabutin]	200 (≈ 0.185 µg/mL)	1.8	110			
CO[C@H]1/C=C/O[C@@]2(C)Oc3c(C)c(O)c4c(c3C2=O)C2=NC3(CCN(CC(C)C)CC3)NC2=C(NC(=O)/C(C)=C/C=C/[C@H](C)[C@H](O)[C@@H](C)[C@@H](O)[C@@H](C)[C@H](OC(=O)c2ccccc2F)[C@@H]1C)C4=O [5e, 25-O-(2-fluorobenzoyl)-25-O-desacetyrifabutin]	60 (≈ 0.0556 µg/mL)	1.0	58			
CO[C@H]1/C=C/O[C@@]2(C)Oc3c(C)c(O)c4c(c3C2=O)C2=NC3(CCN(CC(C)C)CC3)NC2=C(NC(=O)/C(C)=C/C=C/[C@H](C)[C@H](O)[C@@H](C)[C@@H](O)[C@@H](C)[C@H](OC(=O)c2ccccc2Cl)[C@@H]1C)C4=O [5f, 25-O-(2-chlorobenzoyl)-25-O-desacetyrifabutin]	43 (≈ 0.0406 µg/mL)	0.9	49			
COc1ccccc1C(=O)O[C@H]1[C@H](C)[C@H](O)[C@H](C)[C@@H](O)[C@@H](C)/C=C/C=C(\C)C(=O)NC2=C3NC4(CCN(CC(C)C)CC4)N=C3c3c(c(O)c(C)c4c3C(=O)[C@@](C)(O/C=C/[C@H](OC)[C@H]1C)O4)C2=O [5g, 25-O-(2-methoxybenzoyl)-25-O-desacetyrifabutin]	30 (≈ 0.0282 µg/mL)	1.0	30			
CO[C@H]1/C=C/O[C@@]2(C)Oc3c(C)c(O)c4c(c3C2=O)C2=NC3(CCN(CC(C)C)CC3)NC2=C(NC(=O)/C(C)=C/C=C/[C@H](C)[C@H](O)[C@@H](C)[C@@H](O)[C@@H](C)[C@H](OC(=O)c2ccccc2C(F)(F)F)[C@@H]1C)C4=O [5h, 25-O-(2-trifluoromethylbenzoyl)-25-O-desacetyrifabutin]	100 (≈ 0.0977 µg/mL)	0.8	120	2		
CO[C@H]1/C=C/O[C@@]2(C)Oc3c(C)c(O)c4c(c3C2=O)C2=NC3(CCN(CC(C)C)CC3)NC2=C(NC(=O)/C(C)=C/C=C/[C@H](C)[C@H](O)[C@@H](C)[C@@H](O)[C@@H](C)[C@H](OC(=O)c2ccccc2-c2ccccc2)[C@@H]1C)C4=O [5i, 25-O-(2-phenylbenzoyl)-25-O-desacetyrifabutin]	260 (≈ 0.256 µg/mL)	1.8	140	5		
CCC(CC)C(=O)O[C@H]1[C@H](C)[C@H](O)[C@H](C)[C@@H](O)[C@@H](C)/C=C/C=C(\C)C(=O)NC2=C3NC4(CCN(CC(C)C)CC4)N=C3c3c(c(O)c(C)c4c3C(=O)[C@@](C)(O/C=C/[C@H](OC)[C@H]1C)O4)C2=O [5l]	1150 (≈ 1.04 µg/mL)	23.5	49			
CO[C@H]1/C=C/O[C@@]2(C)Oc3c(C)c(O)c4c(c3C2=O)C2=NC3(CCN(CC(C)C)CC3)NC2=C(NC(=O)/C(C)=C/C=C/[C@H](C)[C@H](O)[C@@H](C)[C@@H](O)[C@@H](C)[C@H](OC(=O)c2nccs2)[C@@H]1C)C4=O [5o, 25-O-(2-thiazolecarbonyl)-25-O-desacetyrifabutin]	17 (≈ 0.0156 µg/mL)	1.0	17			
CO[C@H]1/C=C/O[C@@]2(C)Oc3c(C)c(O)c4c(c3C2=O)C2=NC3(CCN(CC(C)C)CC3)NC2=C(NC(=O)/C(C)=C/C=C/[C@H](C)[C@H](O)[C@@H](C)[C@@H](O)[C@@H](C)[C@H](OC(=O)c2cccc(C)c2)[C@@H]1C)C4=O [UMN8]					0.075	0.065
CO[C@H]1/C=C/O[C@@]2(C)Oc3c(C)c(O)c4c(c3C2=O)C2=NC3(CCN(CC(C)C)CC3)NC2=C(NC(=O)/C(C)=C/C=C/[C@H](C)[C@H](O)[C@@H](C)[C@@H](O)[C@@H](C)[C@H](OC(=O)c2ccc(C)cc2)[C@@H]1C)C4=O [UMN9]					0.2	0.11
CCC(CC)C(=O)O[C@H]1[C@H](C)[C@H](O)[C@H](C)[C@@H](O)[C@@H](C)/C=C/C=C(\C)C(=O)NC2=C3NC4(CCN(CC(C)C)CC4)N=C3c3c(c(O)c(C)c4c3C(=O)[C@@](C)(O/C=C/[C@H](OC)[C@H]1C)O4)C2=O [UMN17]					1.15	0.049
CCC(C)C(=O)O[C@H]1[C@H](C)[C@H](O)[C@H](C)[C@@H](O)[C@@H](C)/C=C/C=C(\C)C(=O)NC2=C3NC4(CCN(CC(C)C)CC4)N=C3c3c(c(O)c(C)c4c3C(=O)[C@@](C)(O/C=C/[C@H](OC)[C@H]1C)O4)C2=O (stereo partly drawn) [UMN21]					1.1	0.028
CO[C@H]1/C=C/O[C@@]2(C)Oc3c(C)c(O)c4c(c3C2=O)C2=NC3(CCN(CC(C)C)CC3)NC2=C(NC(=O)/C(C)=C/C=C/[C@H](C)[C@H](O)[C@@H](C)[C@@H](O)[C@@H](C)[C@H](OC(=O)c2ccccc2-c2ccccc2)[C@@H]1C)C4=O [UMN25]					0.26	0.14
CO[C@H]1/C=C/O[C@@]2(C)Oc3c(C)c(O)c4c(c3C2=O)C2=NC3(CCN(CC(C)C)CC3)NC2=C(NC(=O)/C(C)=C/C=C/[C@H](C)[C@H](O)[C@@H](C)[C@@H](O)[C@@H](C)[C@H](OC(=O)c2ccccc2C(F)(F)F)[C@@H]1C)C4=O [UMN30]					0.1	0.12
CO[C@H]1/C=C/O[C@@]2(C)Oc3c(C)c(O)c4c(c3C2=O)C2=NC3(CCN(CC(C)C)CC3)NC2=C(NC(=O)/C(C)=C/C=C/[C@H](C)[C@H](O)[C@@H](C)[C@@H](O)[C@@H](C)[C@H](OC(=O)Nc2cccc(-c3ccccc3)c2)[C@@H]1C)C4=O [UMN31]					0.27	0.43
CO[C@H]1/C=C/O[C@@]2(C)Oc3c(C)c(O)c4c(c3C2=O)C2=NC3(CCN(CC(C)C)CC3)NC2=C(NC(=O)/C(C)=C/C=C/[C@H](C)[C@H](O)[C@@H](C)[C@@H](O)[C@@H](C)[C@H](OC(=O)Nc2ccc(-c3ccccc3)cc2)[C@@H]1C)C4=O [UMN38]					0.2	0.43
CO[C@H]1/C=C/O[C@@]2(C)Oc3c(C)c(O)c4c(c3C2=O)C2=NC3(CCN(CC(C)C)CC3)NC2=C(NC(=O)/C(C)=C/C=C/[C@H](C)[C@H](O)[C@@H](C)[C@@H](O)[C@@H](C)[C@H](OC(=O)NCc2cc(-c3cccc(-c5ccccc5)c3)no2)[C@@H]1C)C4=O [UMN41]					0.25	0.34
CO[C@H]1/C=C/O[C@@]2(C)Oc3c(C)c(O)c4c(c3C2=O)C2=NC3(CCN(CC(C)C)CC3)NC2=C(NC(=O)/C(C)=C/C=C/[C@H](C)[C@H](O)[C@@H](C)[C@@H](O)[C@@H](C)[C@H](OC(=O)N2CCN(CC(F)(F)F)CC2)[C@@H]1C)C4=O [UMN54]					0.13	0.029
CO[C@H]1/C=C/O[C@@]2(C)Oc3c(C)c(O)c4c(c3C2=O)C2=NC3(CCN(CC(C)C)CC3)NC2=C(NC(=O)/C(C)=C/C=C/[C@H](C)[C@H](O)[C@@H](C)[C@@H](O)[C@@H](C)[C@H](OC(=O)N2CCN(CCO)CC2)[C@@H]1C)C4=O [UMN55]					0.28	0.13
CO[C@H]1/C=C/O[C@@]2(C)Oc3c(C)c(O)c4c(c3C2=O)C2=NC3(CCN(CC(C)C)CC3)NC2=C(NC(=O)/C(C)=C/C=C/[C@H](C)[C@H](O)[C@@H](C)[C@@H](O)[C@@H](C)[C@H](OC(=O)Nc2nc(-c3ccccc3)cs2)[C@@H]1C)C4=O [UMN57]					0.15	0.25
CO[C@H]1/C=C/O[C@@]2(C)Oc3c(C)c(O)c4c(c3C2=O)C2=NC3(CCN(CC(C)C)CC3)NC2=C(NC(=O)/C(C)=C/C=C/[C@H](C)[C@H](O)[C@@H](C)[C@@H](O)[C@@H](C)[C@H](OC(=O)N2Cc3ccccc3C2)[C@@H]1C)C4=O [UMN65]					0.11	0.052
CO[C@H]1/C=C/O[C@@]2(C)Oc3c(C)c(O)c4c(c3C2=O)C2=NC3(CCN(CC(C)C)CC3)NC2=C(NC(=O)/C(C)=C/C=C/[C@H](C)[C@H](O)[C@@H](C)[C@@H](O)[C@@H](C)[C@H](OC(=O)N2CCN(C(C)C)CC2)[C@@H]1C)C4=O [UMN66]					0.17	0.056
CO[C@H]1/C=C/O[C@@]2(C)Oc3c(C)c(O)c4c(c3C2=O)C2=NC3(CCN(CC(C)C)CC3)NC2=C(NC(=O)/C(C)=C/C=C/[C@H](C)[C@H](O)[C@@H](C)[C@@H](O)[C@@H](C)[C@H](OC(=O)N2CCC(N(C)C)CC2)[C@@H]1C)C4=O [UMN74]					0.12	0.13
CO[C@H]1/C=C/O[C@@]2(C)Oc3c(C)c(O)c4c(c3C2=O)C2=NC3(CCN(CC(C)C)CC3)NC2=C(NC(=O)/C(C)=C/C=C/[C@H](C)[C@H](O)[C@@H](C)[C@@H](O)[C@@H](C)[C@H](OC(=O)N2CCC(C)(C)C2)[C@@H]1C)C4=O [UMN75]					0.13	0.035
CO[C@H]1/C=C/O[C@@]2(C)Oc3c(C)c(O)c4c(c3C2=O)C2=NC3(CCN(CC(C)C)CC3)NC2=C(NC(=O)/C(C)=C/C=C/[C@H](C)[C@H](O)[C@@H](C)[C@@H](O)[C@@H](C)[C@H](OC(=O)N2CCOCC2)[C@@H]1C)C4=O [UMN78]					0.16	0.040
